# Measurements as given in patent US7910624B1, “Compositions for the treatment of blood disorders” (The Trustees of Boston University, priority 1995, dated 2011).
# Columns and labels:
# [1] = system: erythroblast culture from peripheral blood of patients with sickle cell anemia; test: Induction of fetal globin in erythroblasts by steel factor; format: cell-based, human
# Method: Peripheral blood was obtained from patients with sickle cell anemia. Mononuclear cells were isolated on Ficoll-Hypaque gradients. One culture was treated with 100 ng/ml steel factor for 13 days and compared with an untreated control. […] A second culture was incubated overnight with an identical dose of steel factor Plus ^3H-leucine. Amounts of labeled globin proteins synthesized in untreated (FIG. 5A) and steel factor treated (FIG. 5B) cells were determined by autoradiography and quantitated (scanned) by laser densitometry. […] The increase observed included both G-γ, and A-γ globin proteins.
# anemic juvenile baboons = test: In vivo reticulocyte proliferation and globin expression in phlebotomized anemic baboons; design: species or system baboon; details: for fetal reticulocytes on treatment: 4 days, baseline 4%
# Method: Experiments were performed to determine if administration of the chemical compositions could induce fetal globin gene expression in an in vivo model similar to humans (S. P. Perrin et al., Brit. J. Haematol. 88:555-61, 1994). Briefly, chemicals were prepared as sterile pharmaceutical solutions in pH adjusted sterile water. A variety of chemical compositions were administered sequentially to some baboons. After administration of one compound, a wash-out period with no compound administration was maintained until reticulocytes returned to base line prior to administration of the next compound. This was done, at least partly, to compare the magnitude of response which occurred within the same individual animal to different compounds.
# Briefly, juvenile female baboons (2 years old) were catheterized with arterial and venous catheters and phlebotomized gradually every day to maintain a moderate anemia of 7.0 to 7.5 grams hemoglobin/dl. Fetal reticulocytes, the newly produced red blood cells containing fetal globin, were assayed using a monoclonal antibody against fetal globin (HbF) as described by G. Dover et al. (Blood 67:735-38, 1986). Briefly, blood was stained with two antibodies, one specific for reticulocytes and another against fetal globin protein. The amount of antibody bound cells was determined by FACS analysis. Globin chain synthesis was assayed as described by J. B. Clegg et al. (J. Mol. Biol. 19:91-108, 1966). Briefly, reticulocytes were radio-labeled with ^3H-leucine which was incorporated in equal proportions into actively synthesized globin chains. After incubation in leucine-free media, cells were washed, and globin proteins were separated and purified by column chromatography. Radioactivity incorporated into each peak is compared and the ratios of gamma to gamma plus beta globin calculated. Each animal served as its own control with baseline monitoring assays performed for 4-6 weeks before any drug was administered. Phlebotomy was continued daily, so that peripheral HbF levels in the animals were not considered to be accurate over the short treatment time-frames and were not monitored. Safety monitoring was performed by frequent physical examinations, quantitation of food eaten, activity and frequent chemistry and hematology monitoring. Complete blood counts were assayed before, during and after treatment. Results presented were not adjusted to account for the daily phlebotomy.
# [2] = system: erythroid cells (peripheral blood cells); test: Erythroid cell viability by Calcein-AM fluorescent staining (FIG. 2); format: cell-based; details: 0.5 mM
# Method: Compositions were tested for the ability to directly stimulate erythroid cell growth. Cell growth stimulation is a useful property for an agent to be used to treat anemias and distinguishes such agents from the cytotoxic drugs currently being tested for treatment of hemoglobinopathies. Cell viability analyses were performed using fluorescent staining to detect living cells. Cells were in log phase of growth in 6-well dishes when used in proliferation assays. For enumeration of living cells, wells were washed once with medium to remove nonadherent or dead cells. Remaining live cells were labeled with 2 μM 2′,7′-bis-(carboxyethyl)-5-(and 6)-carboxy-fluorescein acetoxy-methyl ester (Calcein-AM) (Molecular Probes; Eugene, Oreg.) for 20 minutes at 37° C. and washed once. Fluorescence intensity of live cells was read on a CytoFluor 2300 Fluorescence Plate Scanner (Millipore; Bedford, Mass.) at excitation and emission wavelengths of 485 and 530 nm, respectively. The fluorescence intensity of a well was proportional to the number of living cells in the well. Background fluorescence was measured separately for each plate and subtracted from all readings. Each experiment was performed in triplicate or quadruplicate. The standard deviation (SD) of repetitive readings was less than 30% of the mean. Results are depicted in FIG. 2.
# K562 cells = test: Dose response, total and viable cells by trypan blue exclusion (FIG. 3); format: cell-based, human; details: up to 2.0 mM, day 4
# Method: FIG. 3 A FIG. 3E Cell viability as determined by the comparative numbers of total and viable K562 cells in the presence of increasing concentrations of (A) phenoxyacetic acid, (B) dihydrocinnamic acid, (C) butyric acid ethyl ester, (D) arginine butyrate, and (E) isobutyramide.
# Dose response curves at dosages of up to 2.0 mM were also determined for phenoxyacetic acid (PAA; FIG. 3A), dihydrocinnamic acid (DHC; FIG. 3B), butyric acid ethyl ester (BAEE; FIG. 3C), arginine butyrate (AB; FIG. 3D) and isobutyramide (IBT; FIG. 3E). Cells were counted on day 4 of treatment and viable cells identified by trypan blue exclusion.
# [3] = system: erythroid progenitor cells cultured from human cord blood; test: Fetal globin expression in human cell cultures (3H-leucine labelled globin chains, densitometry); format: cell-based
# Method: Compositions were tested for activity in inducing fetal globin expression and protein production in erythroid progenitor cells cultured from human cord blood and analyzed as described by S. P. Perrine et al. (Blood 74: 454-60, 1989). Briefly, mononuclear cells were cultured in IMDM with 30% fetal calf serum and 2 units erythropoietin per ml to induce erythroid differentiation. Colonies were harvested on day 12-13, incubated with radio-labelled (^3H) leucine, and further incubated in leucine-free media, still in the presence of compounds, overnight. Globin composition in the erythroid cells was analyzed by laser densitometry of electrophoretically separated globin chains stained with Coomassie blue, and by autoradiography. Treated cells were incubated for 12-13 days (Table 2, Experiments A and B) or overnight (Table 2, Experiment C) in the presence of the indicated compounds and compared to untreated control cells cultured from the same human subject.
# [4] = system: Human erythroleukemia cells; test: Fetal globin mRNA in erythroleukemia cells by primer extension; format: cell-based; details: 1.0 mM; 4 days
# Method: Compounds were tested for increased expression of the human globin genes in human erythroid cells. In addition, as the cell line being tested is a tumor cell line, the assay determines if differentiation, a growth inhibitory effect on cancer cells, is induced by the compounds tested. Human erythroleukemia cells were cultured in RPMI media with 10% fetal calf serum alone or with treatment with various compounds for 4 days. Globin mRNA was quantitated by primer extension analysis. Fetal globin mRNA was compared to the amount of fetal globin mRNA produced in untreated cells during the same culture period. The quantitation was expressed as a percent of alpha globin mRNA which was constant. Results are expressed proportional to α-globin mRNA (Table 3).
# [5] = system: human erythroid cell line K562; test: Cell viability / growth of K562 by Calcein-AM fluorescence; format: cell-based; details: 0.5 mM; over 3 days
# Method: (§1) Such activities might limit their utility for treatment of anemias such as occur in thalassemia, but alternatively would be useful for anticancer effects. To determine cell viability, human erythroid cells were cultured in the presence and absence of these compounds for 4 days and the amount of DNA fragmentation which occurred was measured.
# Cell viability analyses were performed using fluorescent staining to detect living cells. Cells were in log phase of growth in 6-well dishes when used in proliferation assays. For enumeration of living cells, wells were washed once with medium to remove nonadherent or dead cells. Remaining live cells were labeled with Calcein-AM for 20 minutes at 37° C. and washed once. Fluorescence intensity of adherent live cells was read on a CytoFluor 2300 Fluorescence Plate Scanner (Millipore; Bedford, Mass.) at excitation and emission wavelengths of 485 and 530 nm, respectively. The fluorescence intensity of a well was proportional to the number of living cells in the well. Background fluorescence was measured separately for each plate and subtracted from all readings. Each experiment was performed in triplicate or quadruplicate. The standard deviation (SD) of repetitive readings was less than 30% of the mean.
# At higher concentrations, still easily achievable in vivo, arginine butyrate (0.5 mM) and dihydrocinnamic acid (greater than 0.5 mM) inhibited growth of this tumor cell line by approximately 50%. Therefore, these compounds are also useful as anti-tumor agents.
# human erythroid cells = test: DNA fragmentation by flow cytometry (propidium iodide); format: cell-based; details: for effect in DNA fragmentation assays: summary statement
# Method: as §1
# Flow cytometric determination of DNA profiles and DNA fragmentation were determined. Cytometric analysis was performed with a FACScan (Becton Dickenson Instruments; Columbia, Md.). The data analysis and display were performed using the Cell-Fit software program. Approximately 0.5×10^6 cells were washed twice with PBS and resuspended in 1 ml of 1% sodium citrate, 0.1% Triton X-100 and […] of propidium iodide/ml. Resulting permeabilized cells were kept in the dark at 4° C. overnight before DNA profile or DNA fragmentation analysis (Table 4).
# [6] = system: patient with thalassemia intermedia; test: Isobutyramide treatment of a patient with thalassemia, blood counts and hemoglobin; format: in vivo, human; details: 50 mg/kg 3 days/week
# Method: This patient received isobutyramide at 50 mg/kg for 3 days/week over the course of the study.
# [7] = system: Human mammary carcinoma cells (MCF-7); test: Human mammary carcinoma cell viability by FACS; format: cell-based; details: 1.0 mM; 4 days
# Method: Human mammary carcinoma cells (MCF-7) were cultured alone (controls) and with arginine butyrate or isobutyramide for 4 days. Viability was assayed by FACS after incubation with a fluorescent dye taken up by viable cells (FIG. 6). Growth was decreased by 50% with isobutyramide at 1.0 mM, about 60% with arginine butyrate at 0.5 mM, and greater than 90% with arginine butyrate at 1.0 mM.
# [8] = system: system A transport in K562 cells and nucleated erythroblasts from fetal liver; test: System A (neutral amino acid) transport, 3H-MAIB uptake; format: cell-based, human; details: 1 hour incubation; FIG. 12
# Method: Inhibition of nutrient uptake is undesirable for treatment of anemias. Methyl aminoisobutyric acid (MAIB) labeled with tritium (^3H) is normally taken up by system A amino acid transport. Cold (unlabeled) compounds were added to cultures containing ^3H-MAIB and incubated for 1 hour. Cells were harvested and the amount of ^3H taken up by cells was quantitated by scintillation counting.
# [9] = 25 and 100 μg/kg subcutaneously
# [10] = 1.0 mM to 2.0 mM, untreated cells 26%
# [11] = 2.0 mM, 4 days, controls 26%, 22%
molecule,measurement,setting,value
"steel factor: hematopoietic factor, also referred to as kit ligand, mast cell growth factor and stem cell factor",gamma globin expression after treatment,"[1]; 100 ng/ml overnight plus 3H-leucine, increased from 17.6%",43.3%
same,gamma globin expression in BFU-e cells after treatment,"[1]; 100 ng/ml, 13 days, increased from 14%",23.3%
same,"Gamma globin expression, mean increase","[1]; 100 ng/ml, 13 days, versus untreated control",16.1%
same,rise in numbers of newly-formed blood cells producing fetal globin,anemic juvenile baboons; [9],300-500%
same,rise of fetal globin chain protein,anemic juvenile baboons; [9],3 fold
same,total increase of gamma globin expression in the bone marrow,anemic juvenile baboons; [9],9 fold
same,fetal globin chain protein after treatment,"anemic juvenile baboons; 25 and 100 μg/kg subcutaneously, undetectable before treatment",about 3 % of total non-alpha globin
same,fetal reticulocytes on treatment,anemic juvenile baboons; first dose regimen: 25 μg/kg subcutaneously once daily,15%
same,fetal reticulocytes on treatment,anemic juvenile baboons; second dose regimen: 100 μg/kg subcutaneously,12%
"CCCC(=O)OCC [BAEE, butyric acid ethyl ester]",erythroid cell growth and proliferation compared to untreated controls (FIG. 2),[2],either had no effect or stimulated erythroid cell growth and proliferation
same,"proliferation (dose response, FIG. 3)",K562 cells,did not significantly inhibit proliferation
same,Gamma Increase,"[3]; Exp. A, 0.1 mM, 12-13 days, above untreated cells",13.0%
same,Gamma Increase,"[3]; Exp. B, 0.2 mM, 12-13 days",8.5%
same,Gamma Increase,"[3]; Exp. C, 0.1 mM, overnight",12.5%
same,induction of fetal globin mRNA in human cells,[4],significantly increased
same,growth of K562,[5],"either did not inhibit, or slightly enhanced growth"
same,Degraded DNA,human erythroid cells; [10],13.8%
same,Degraded DNA,human erythroid cells; [11],13.8%
same,effect in DNA fragmentation assays,human erythroid cells,reduce DNA fragmentation
same,increase of fetal reticulocytes above basal levels,"anemic juvenile baboons; intravenous 3 days, 500 to 1,000 mg/kg per day","over 1,100%"
same,increase of fetal reticulocytes,"anemic juvenile baboons; intravenous 3 days, 500 to 1,000 mg/kg per day (FIG. 11)",11.3 fold
"CC(C)C(N)=O [IBT, isobutyramide]",erythroid cell growth and proliferation compared to untreated controls (FIG. 2),[2],either had no effect or stimulated erythroid cell growth and proliferation
same,Degraded DNA,human erythroid cells; [10],44%
same,Degraded DNA,human erythroid cells; [11],34%
same,effect in DNA fragmentation assays,human erythroid cells,decrease cell viability
same,fetal globin (HbF),[6]; four month study period,lack of increased fetal globin
same,rise of hematocrit (Hct),[6]; four month study period,5.8%
same,rise of hemoglobin (Hgb),[6]; four month study period,1.6 g/dL
same,rise of reticulocytes (Retics),[6]; four month study period,about 50%
same,rise of total red blood cells (RBC),[6]; four month study period,~1e+06 cells/µL
same,Hemoglobin-A1 and hemoglobin-A2 levels,[6]; throughout the study,approximately constant
same,Retics,[6]; Day 8,2.5 ×10^6 cells
same,HbF,[6]; Day 22,0.4
same,Retics,[6]; Day 22,2.0 ×10^6 cells
same,Hgb-A2,[6]; Day 29,7.0
same,Retics,[6]; Day 29,2.0 ×10^6 cells
same,HbF,[6]; Day 36,0.4
same,Retics,[6]; Day 43,2.0 ×10^6 cells
same,RBC,"[6]; Day 96, 50 mg/kg",7.3e+06 cells/µL
same,decrease of growth of MCF-7,[7],50%
same,system A transport of amino acids (3H-MAIB uptake),[8],inhibited the neutral amino acid transport mechanism
